Experimental data reported in patent US7244861B2, “Benzene compound and salt thereof” (Eisai Co., Ltd., priority 2001, dated 2007).

Assays:
Test in all cases: Measurement of transcriptional activity, GAL4-PPAR LBD chimera / PLAP reporter in CV-1 cells
Type in all cases: cell-based
[1] = target: T1, PPAR α (Homo sapiens, UniProt Q07869); settings: PLAP activity secreted 24 hours after addition of the compound, read-out: Transcriptional activities EC50 PPAR α
T1 construct: human PPAR 167–468 (PPAR); expressed in transfected cells; host or cells: CV-1 (ATCC CCL-70)
T1 sequence (Q07869 167-468): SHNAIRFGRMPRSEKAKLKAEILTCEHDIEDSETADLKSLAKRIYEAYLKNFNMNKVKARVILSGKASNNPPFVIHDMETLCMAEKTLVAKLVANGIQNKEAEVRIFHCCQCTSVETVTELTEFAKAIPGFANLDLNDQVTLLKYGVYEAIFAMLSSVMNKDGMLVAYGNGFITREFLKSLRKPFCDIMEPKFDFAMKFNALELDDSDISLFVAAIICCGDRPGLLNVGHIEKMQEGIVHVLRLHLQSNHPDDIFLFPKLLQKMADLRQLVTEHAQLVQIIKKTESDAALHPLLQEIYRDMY
Text: (§1) Measurement of Transcriptional Activity
(§2) A GAL4-PPAR LBD chimera expression vector was constructed by ligating human PPAR 167–468 (PPAR), 138–440 (NUC-1) and 174–475 (PPAR) amino acid regions (LBD: Ligand Binding Domain) to a yeast transcriptional factor GAL4 1–147 amino acid region. As the reporter gene, PLAP (Placental Alkaline Phosphatase) was used, and this was ligated downstream of a TK promoter containing a 5-copy GAL4 DNA binding element to construct a vector. As host cells, CV-1 (ATCC CCL-70) was used. That is, CV-1 cells were spread at a density of 5×10^5 cells on a 35-mm dish and cultured in 10% FCS/DMEM for 24 hours, and using FuGENE 6 transfection reagent, the cells were co-transfected with the GAL4-PPAR LBD expression vector and GAL4 DBD-TK-PLAP expression vector. 24 hours after this transfection, the cells were spread again on a 96-well plate at a density of 1×10^4/well and further cultured for 24 hours. After 24 hours, the medium was exchanged with DMEM containing 10% FCS, which was previously treated at 65° C. for inactivating intrinsic alkaline phosphatase, and a test compound was added at an arbitrary concentration. The transcriptional activity was determined in terms of PLAP activity secreted 24 hours after addition of the compound, to calculate EC50. The PLAP activity was determined after adding 50 μl assay buffer and 50 μl chemoluminescence substrate to 10 μl culture supernatant and incubating the mixture at room temperature for 1 hour. The transcriptional activities for PPARα, PPARβ(δ) and PPARγ are shown respectively in Table 1.

[2] = target: T2, PPAR β (Homo sapiens, UniProt Q03181); settings: PLAP activity secreted 24 hours after addition of the compound, read-out: Transcriptional activities EC50 PPAR β
T2 construct: 138–440 (NUC-1); expressed in transfected cells; host or cells: CV-1 (ATCC CCL-70)
T2 sequence (Q03181 138-440): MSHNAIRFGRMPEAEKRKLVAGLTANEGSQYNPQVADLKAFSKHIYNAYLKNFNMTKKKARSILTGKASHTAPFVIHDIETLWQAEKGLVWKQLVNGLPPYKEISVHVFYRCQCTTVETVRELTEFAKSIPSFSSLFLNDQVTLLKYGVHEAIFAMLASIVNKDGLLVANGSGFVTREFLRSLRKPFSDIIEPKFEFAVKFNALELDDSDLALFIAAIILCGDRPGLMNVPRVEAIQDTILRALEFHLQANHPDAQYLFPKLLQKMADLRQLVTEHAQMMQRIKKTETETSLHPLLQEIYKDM
Text: as §1, §2

[3] = target: T3, PPAR γ (Homo sapiens, UniProt P37231); settings: PLAP activity secreted 24 hours after addition of the compound, read-out: Transcriptional activities EC50 PPAR γ
T3 construct: 174–475 (PPAR) amino acid regions; expressed in transfected cells; host or cells: CV-1 (ATCC CCL-70)
T3 sequence (P37231 174-475 isoform P37231-2): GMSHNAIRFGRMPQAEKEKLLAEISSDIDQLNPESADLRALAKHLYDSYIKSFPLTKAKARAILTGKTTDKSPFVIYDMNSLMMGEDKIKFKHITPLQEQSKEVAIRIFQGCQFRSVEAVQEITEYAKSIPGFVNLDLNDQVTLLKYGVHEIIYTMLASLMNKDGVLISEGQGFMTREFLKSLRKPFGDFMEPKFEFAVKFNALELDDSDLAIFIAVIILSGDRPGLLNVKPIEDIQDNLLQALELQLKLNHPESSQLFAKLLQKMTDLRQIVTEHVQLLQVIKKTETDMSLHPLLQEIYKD
Text: as §1, §2

EC50 [1] [nM] | EC50 [2] [nM] | EC50 [3] [nM] | SMILES
10.8 | 1000 | 5.8 | COc1ccc(CC(OC(C)C)C(=O)O)c(OC)c1CNC(=O)c1ccc(OC2CCCC2)cc1Cl (stereo not drawn) [Example 11, 3-(3-[(2-Chloro-4-cyclopentyloxybenzoyl)amino]methyl-2,4-dimethoxyphenyl)-2-isopropoxypropionic acid]
66.5 | 483 | 52.4 | CC(C)OC(Cc1cc(CNC(=O)c2ccc(C(F)(F)F)cc2F)c2occc2c1)C(=O)O (stereo not drawn) [Example 35]
17.9 | 1600 | 3.4 | CC(C)Oc1ccc(C(=O)NCc2cc(CC(OC(C)C)C(=O)O)cc3c2OCC3)c(Cl)c1 (stereo not drawn) [Example 42, 3-(7-[(2-Chloro-4-isopropoxybenzoyl)amino]methyl-2,3-dihydrobenzo[b]furan-5-yl)-2-isopropoxypropionic acid]
